These results are taken from publication PMC5956890 (Journal of medicinal chemistry, 2017).

Where a name gives a salt, the structure may show the parent alone.

Assay [1] deals with T1, PPARα (Homo sapiens, UniProt Q07869).
T1 sequence (Q07869 200-468 limits assumed): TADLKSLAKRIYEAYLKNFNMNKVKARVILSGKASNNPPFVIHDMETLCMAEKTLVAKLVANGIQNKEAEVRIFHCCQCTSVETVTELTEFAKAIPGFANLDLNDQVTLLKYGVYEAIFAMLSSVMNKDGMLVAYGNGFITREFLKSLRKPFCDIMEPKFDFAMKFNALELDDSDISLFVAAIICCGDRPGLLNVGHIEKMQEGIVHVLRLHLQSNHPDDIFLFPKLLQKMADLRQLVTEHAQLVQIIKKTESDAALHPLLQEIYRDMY
The assay is described as follows: TR-FRET competitive binding assay PPARα. The settings on record: up to 20 µM.

Assay [2] deals with T2, PPARγ (Homo sapiens, UniProt P37231).
T2 sequence (P37231 235-505 limits assumed): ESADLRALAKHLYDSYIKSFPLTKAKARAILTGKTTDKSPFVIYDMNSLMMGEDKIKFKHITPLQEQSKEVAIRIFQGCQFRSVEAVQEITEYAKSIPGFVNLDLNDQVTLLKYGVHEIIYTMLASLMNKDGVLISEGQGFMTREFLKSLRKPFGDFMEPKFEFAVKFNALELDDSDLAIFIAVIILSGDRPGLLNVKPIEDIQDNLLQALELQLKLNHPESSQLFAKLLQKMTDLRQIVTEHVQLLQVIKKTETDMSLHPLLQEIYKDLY
Put plainly: TR-FRET competitive binding assay PPARγ. Conditions: concentration-response.

Assay [3] has as its target T3, PPARδ (Homo sapiens, UniProt Q03181).
T3 sequence (Q03181 211-439 limits assumed): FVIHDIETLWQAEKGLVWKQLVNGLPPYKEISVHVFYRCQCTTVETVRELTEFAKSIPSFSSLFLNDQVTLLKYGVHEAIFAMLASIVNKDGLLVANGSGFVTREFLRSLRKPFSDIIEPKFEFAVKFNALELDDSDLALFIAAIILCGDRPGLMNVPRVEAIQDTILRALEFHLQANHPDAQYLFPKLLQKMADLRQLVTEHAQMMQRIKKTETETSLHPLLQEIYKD
The assay is described as follows: TR-FRET PPARδ coactivator assay. The format is biochemical. Conditions: compound alone.

The target of assay [4] is T3, PPARδ. Put plainly: TR-FRET PPARδ corepressor assay. The assay is classed as biochemical. The settings on record: SMRT-ID2 peptide.
Assay [5] has as its system STZ-induced diabetic C57BL/6J mice. The assay is described as follows: STZ-induced diabetes mouse model. The assay is classed as in vivo. Conditions: oral 20 mg/kg for 5 days, male C57BL/6J.
In assay [6] the target is T4, PPARδ (Homo sapiens, UniProt Q03181).
T4 sequence (Q03181 1-441): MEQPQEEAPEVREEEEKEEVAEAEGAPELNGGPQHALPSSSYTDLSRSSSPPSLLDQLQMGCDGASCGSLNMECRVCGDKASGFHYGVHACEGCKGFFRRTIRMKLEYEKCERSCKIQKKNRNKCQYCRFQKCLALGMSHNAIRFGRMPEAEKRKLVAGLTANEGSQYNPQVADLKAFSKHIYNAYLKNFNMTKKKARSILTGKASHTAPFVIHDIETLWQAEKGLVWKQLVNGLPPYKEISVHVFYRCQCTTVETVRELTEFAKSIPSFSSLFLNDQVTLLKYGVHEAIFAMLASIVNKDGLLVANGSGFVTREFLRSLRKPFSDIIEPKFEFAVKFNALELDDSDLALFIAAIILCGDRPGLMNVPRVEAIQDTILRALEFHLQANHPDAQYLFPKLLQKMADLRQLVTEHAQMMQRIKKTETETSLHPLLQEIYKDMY
Put plainly: TR-FRET competitive binding assay PPARδ. The settings on record: concentration-response.

The subject of assay [7] is human AR-transfected murine osteoblast precursor cell line 7F2. Conditions: cited from earlier work.
Assay [8] has as its system hBM-MSCs. The assay is described as follows: adiponectin production during adipogenesis in hBM-MSCs. The settings on record: for adiponectin production during adipogenesis: compared to IDX control; for adipogenesis in hBM-MSCs: compared to control.
Assay [9] relates to ANGPTL4 and PDK4 gene transcription. Put plainly: Q-RT-PCR of ANGPTL4 and PDK4 mRNA in hBM-MSCs. The assay is classed as cell-based, human. Conditions: 3rd day after induction of adipogenesis.
Assay [10] concerns hBM-MSCs. Put plainly: Oil Red O staining of lipid droplets in hBM-MSCs. The assay is classed as cell-based, human. Conditions: compared with IDX control, 7th day.

With `CNC(=O)[C@H]1S[C@@H](n2cnc3c(NCc4cccc(I)c4)ncnc32)[C@H](O)[C@@H]1O` [Compound 1c], the “replacement of labeled PPARα ligand binding” value in assay [1] is on record as no more than 50%. Further, the “PPARγ binding activity” value in assay [2] is on record as “very weak binding activity”. Also, in [3], the “recruitment of labeled coactivator peptide to PPARδ” value was “no effect on the recruitment of the labeled coactivator peptide”. In [4], the “interaction between PPARδ and corepressor peptide” value is on record as “enhanced the interaction of PPARδ with the corepressor peptide”. Besides, in assay [5], the “serum glucose levels” value was “significantly decreased serum glucose levels” and the “serum triglyceride levels” value was “downregulated serum triglyceride levels”.
On to `CNC(=O)[C@H]1S[C@@H](n2cnc3c(NCc4cccc(I)c4)nc(Cl)nc32)[C@H](O)[C@@H]1O` [Compound 1d], for which the “PPARδ binding activity” value in [6] was “most potent inhibitor among A3 AR agonists”.
Take `OC[C@H]1O[C@@H](n2cnc3c(NC4CCCC4)nc(Cl)nc32)[C@H](O)[C@@H]1O` [Compound 14, 2-chloro-N^6-cyclopentyladenosine]: the “increase of adipocyte differentiation” value in [7] is listed as 20–30%. In assay [8], the “adiponectin production during adipogenesis” value is “no significant effect” and the “adipogenesis in hBM-MSCs” value is on record as “did not significantly promote adipogenesis”.
On to `CCNC(=O)[C@H]1O[C@@H](n2cnc3c(N)ncnc32)[C@H](O)[C@@H]1O` [Compound 15, 5′-(N-ethylcarboxamido) adenosine], for which the “increase of adipocyte differentiation” value in [7] is recorded as 20–30%. Also, in [8], the “adiponectin production during adipogenesis” value is listed as “no significant effect” and the “adipogenesis in hBM-MSCs” value is “did not significantly promote adipogenesis”.
With `CCNC(=O)[C@H]1O[C@@H](n2cnc3c(N)nc(NCCc4ccc(CCC(=O)O)cc4)nc32)[C@H](O)[C@@H]1O` [Compound 16, 2-p-(2-carboxyethyl)phenethylamino-5′-N-ethylcarboxamidoadenosine hydrochloride hydrate], in [8], the “adiponectin production during adipogenesis” value was “no significant effect”.
Regarding `CNC(=O)[C@@]12C[C@@H]1[C@@H](n1cnc3c(NCc4cccc(Cl)c4)nc(C#Cc4ccc(F)c(F)c4)nc31)[C@H](O)[C@@H]2O` [Compound 17, (1S,2R,3S,4R,5S)-4-[6-[[(3-chlorophenyl)methyl]-amino]-2-[2-(3,4-difluorophenyl)ethynyl]-9H-purin-9-yl]-2,3-dihydroxy-N-methylbicyclo[3.1.0]hexane-1-carboxamide], the “adipogenesis in hBM-MSCs” value in assay [8] is listed as “no effect on adipogenesis”.
As for `CCCn1cc2c(nc(NC(=O)Nc3ccc(OC)cc3)n3nc(-c4ccco4)nc23)n1` [Compound 18, N-[2-(2-furanyl)-8-propyl-8H-pyrazolo[4,3-e][1,2,4]triazolo[1,5-c]pyrimidin-5-yl]-N′-(4-methoxyphenyl)-urea], the “adipogenesis in hBM-MSCs” value in assay [8] is given as “no effect on adipogenesis”.
Regarding `Cc1cc(SCc2sc(-c3ccc(C(F)(F)F)cc3)nc2C)ccc1OCC(=O)O` [Compound 22, 2-[2-methyl-4-[[[4-methyl-2-[4-(trifluoromethyl)phenyl]-5-thiazolyl]methyl]thio]phenoxy]acetic acid], in assay [9], the “ANGPTL4 mRNA level” value is “significantly increased ANGPTL4 and PDK4 gene transcription”; the “PDK4 mRNA level” value was “significantly increased ANGPTL4 and PDK4 gene transcription”.
Regarding `COC(=O)c1sccc1S(=O)(=O)Nc1ccc(Nc2ccccc2)cc1OC` [Compound 23, 3-[[[2-methoxy-4-(phenylamino)phenyl]-amino]sulfonyl]-2-thiophenecarboxylic acid methyl ester], in [9], the “ANGPTL4 mRNA level” value is “did not affect ANGPTL4 and PDK4 mRNA levels”; the “PDK4 mRNA level” value is “did not affect ANGPTL4 and PDK4 mRNA levels”.
In the case of `O=C(NCCS(=O)(=O)c1ccc(C(F)(F)F)cn1)c1ccc(Cl)cc1` [Compound 24, 4-chloro-N-[2-[[5-(trifluoromethyl)-2-pyridinyl]sulfonyl]ethyl]benzamide], the “interaction between PPARδ and corepressor peptide” value in assay [4] was “significantly promoted the recruitment of the corepressor peptide”. Also, in [9], the “ANGPTL4 mRNA level” value was “did not affect ANGPTL4 and PDK4 mRNA levels”; the “PDK4 mRNA level” value is “did not affect ANGPTL4 and PDK4 mRNA levels”.
On to `Nc1ncnc2c1ncn2[C@@H]1O[C@H](CO)[C@@H](O)[C@H]1O` [adenosine], for which, in [8], the “adiponectin production during adipogenesis” value is listed as “no significant effect”.
`Cn1c(=O)c2c(ncn2C)n(C)c1=O` [caffeine]: in assay [10], the “lipid droplets in differentiated adipocytes (ORO staining)” value is “decreased them”. In addition, the “adipogenesis in hMSCs” value in assay [8] (1 mM) was “inhibited adipogenesis”.
Regarding `COc1ccc(Cl)cc1C(=O)NCCc1ccc(S(=O)(=O)NC(=O)NC2CCCCC2)cc1` [glibenclamide], the “PPARγ binding activity” value in assay [2] is “showed PPARγ binding activity”.
